The structures appear in SMILES notation. Bounds are passed on as bounds.

Data on 2 compounds can be found in patent US10966996B2, “Glechoma longitube extract, preparation method for same, and use thereof in sugar reduction, weight loss, and lipid reduction” (SHANGHAI INSTITUTE OF MATERIA MEDICA CHINESE ACADEMY OF …, priority 2014, dated 2021).

One experiment has as its system C57BL/KsJ mice. Kind of experiment: acute oral glucose tolerance test (OGTT) and blood insulin in mice. The note with it: for acute oral glucose tolerance in mice: both 100 mg/kg and 200 mg/kg; for acute oral glucose tolerance in mice, compared with Sitagliptin (10 mg/kg): higher dose (200 mg/kg). It counts as in vivo. How it is done: Oral glucose tolerance test (OGTT) method: 8-week old male C57BL/KsJ mice (Shanghai Slac Laboratory Animal Company), 8 for each group, weight of 20±2 g, were fed according to SPF grade operation procedure and fasted for 16 hours prior to experiment. Blood was collected from tail vein of each group of mice prior to experiment. Blood glucose concentrations were measured using Roche ACCU-CHEK glucometer and recorded as time 0. Different concentrations of the compound were intragastric administrated to each administration group of mice, respectively. Equal volume of distilled water was given to control group of mice. The dosage volume was 10 ml/kg. Half an hour after administration, 5 g/kg glucose was intragastric administrated to each group of mice. Blood glucose concentrations of each group of mice were measured and recorded at 20 mins, 40 mins, and 80 mins after the intragastric administration. OGTT curves were recorded. Areas under the curves (AUC) were calibrated with the data in blood glucose of mice to which glucose was not given (calibration group). ONE-WAY-ANOVA was used to compare significant difference between each group (Note: all the experimental methods for acute oral glucose tolerance test in the following activity examples are the same to the experimental method in Example 5, unless otherwise indicated). Blood was collected from tail vein at 20 mins after oral administration of glucose for mice. ELISA (kit was bought from Millipore, USA) was utilized for measuring blood insulin level of mice.

For a further experiment, the target named is T1, hDGAT1 (Homo sapiens, UniProt O75907).
T1 construct: made in house; host or cells: insect cells
T1 sequence (O75907 1-488): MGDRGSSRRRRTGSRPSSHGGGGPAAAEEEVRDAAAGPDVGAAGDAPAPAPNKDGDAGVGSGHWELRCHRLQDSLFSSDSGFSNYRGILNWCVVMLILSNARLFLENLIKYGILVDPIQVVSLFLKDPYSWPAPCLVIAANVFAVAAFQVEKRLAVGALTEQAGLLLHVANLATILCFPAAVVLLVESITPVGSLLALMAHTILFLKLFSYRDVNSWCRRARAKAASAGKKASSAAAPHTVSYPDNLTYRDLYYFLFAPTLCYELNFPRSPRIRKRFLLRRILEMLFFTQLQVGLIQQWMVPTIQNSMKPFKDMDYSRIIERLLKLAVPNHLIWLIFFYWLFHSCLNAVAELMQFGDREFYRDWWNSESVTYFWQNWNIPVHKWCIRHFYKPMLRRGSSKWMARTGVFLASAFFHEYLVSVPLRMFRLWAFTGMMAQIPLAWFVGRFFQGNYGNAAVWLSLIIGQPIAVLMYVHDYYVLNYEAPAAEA
Briefly: inhibitory activity against hDGAT1 (CPM fluorescence). In kind it is biochemical. To be noted: for inhibition at 10 µM: read-out: Inhibition rate (%) (10 μM) against hDGAT1; for inhibition at 50 µM: read-out: Inhibition rate (%) (50 μM) against hDGAT1. As to the method: Experimental method: (1) the effect of the extract of Glechoma longituba (Nakai) Kupr., LQC-H-1, on serum triglyceride level was evaluated in acute hypertriglyceridemic mouse model; 6-week old male C57BL/KsJ mice (Shanghai Slac Laboratory Animal Company), 8 for each group, weight of 20±2 g, were fed according to SPF grade operation procedure and fasted overnight for 16 hours prior to experiment. Compounds of different concentrations were intragastric administrated to each administration group of mice, respectively. Equal volume of water was given to control group and blank group of mice. 30 mins later, 2 g/kg olive oil was intragastric administrated to administration group and control group of mice, while equal volume of water was given to blank group of mice. 2 hours later, blood was collected from orbital vein of each group of mice for the separation of serum, and concentration of triglyceride in the serum was measured; (2) inhibitory activity of the individual compounds separated from the extract of Glechoma longituba (Nakai) Kupr., LQC-H-1, against diacylglycerol acyltransferase (DGAT): human derived DGAT1 obtained by expression and purification with insect cells were pre-incubated together with the compounds, substrate diacylglycerol was added to initiate the reaction in the presence of coenzyme A, fluorescence signal generated by the combination of produced sulfydryl and CPM was measured, and the inhibitory activity of the compound against DGAT was calculated according to the following formula: Inhibition rate %=(OD blank−OD compound)/(OD blank−OD negative control)*100%
OD compound, OD blank, and OD negative control represented the fluorescence values from a compound well, a blank well, and a negative control well free of DGAT1 enzyme, and the concentrations of the compounds when the enzyme activity inhibition rate (%) reached 50% were set as IC50 value; (3) inhibitory activity of the individual compounds separated from the extract of Glechoma longituba (Nakai) Kupr., LQC-H-1, against pancrelipase: substrate p-Nitrophenyl acetate (Sigma, USA) was formulated to 1.35 mM with phosphate buffer (25 mM, pH 6.8); porcine pancrelipase (Sigma) was formulated to 10 mg/ml with phosphate buffer; brominated eneyne compounds were formulated to solutions of different concentrations with phosphate buffer. Then, 50 μl of 1.35 mM p-Nitrophenyl acetate (Sigma, USA) solution and 10 μl of test compounds of different concentrations were sequentially added into a 96-well plate and pre-incubated at 37° C. for 5 mins. Finally, 50 μl of 10 mg/ml pancrelipase (EC 3.1.1.3, Sigma, USA) was added and mixed. The reaction proceeded at 37° C. for further 20 mins Absorbance of each well was measured at 492 nm. The inhibition rates (%) of the test samples against pancrelipase were calculated based on the absorbance at 492 nm. The concentrations of the compounds when then enzyme activity inhibition rate (%) reached 50% was set as IC50 value. The inhibition rate (%) could be calculated according to the following formula: Inhibition rate (%)=[(A−B)−(C−D)]/(A−B)×100

The next experiment has as its target T2, DDP4 enzyme (Homo sapiens, UniProt P27487).
T2 construct: cell lysis solution of human colon cancer cell line Caco-2 as DDP4 enzyme source; endogenous in cells; host or cells: Caco-2 (human colon cancer cell line) lysate
Briefly: in vitro inhibiting activity against DDP4 enzyme (Caco-2 cell lysis solution, H-Gly-Pro-AMC substrate). It counts as biochemical. To be noted: for inhibition rate against DDP4: 100 μM; for inhibition at 100 µM: read-out: inhibition rate against DDP4. As to the method:
Experimental method: (1) determination of inhibiting activity of Compound I and Compound II against DDP4 enzyme in vitro: cell lysis solution of human colon cancer cell line Caco-2 as DDP4 enzyme source (Thomas, L., et al, 2008, JPET). In a drug screening system of 96-well plate, 100 μL/well, the final concentration of H-Gly-Pro-AMC substrate (AnaSpec) was 244 μM, in which different concentrations of test compounds were added for incubation at 37° C. for 30 mins Fluorescence signals were detected at excitation wavelength 380 nm/emission wavelengths 460 nm Inhibition rates (%) on the enzyme of test samples against DDP4 were calculated according to fluorescence absorption value obtained by detection. The inhibition rate (%) is calculated according to the following formula: Inhibition rate (%)=(RFU blank−RFU compound)/(RFU blank−RFU negative control)*100%
RFU compound, RFU blank, and RFU negative control represent the difference of fluorescence values at 30 mins and at 0 min from a compound well, a blank well, and a negative control well free of enzyme; (2) effect of Compound I and Compound II for acute glucose tolerance in mice: the OGTT experimental method was the same to Example 5, the mice were divided into control group; calibration group; Compound I lower dose group (100 mg/kg); Compound I higher dose group (200 mg/kg); Compound II lower dose group (100 mg/kg); Compound II higher dose group (200 mg/kg); and positive drug group (Sitagliptin 10 mg/kg, Merck Company, USA).

T2 sequence (P27487 whole entry): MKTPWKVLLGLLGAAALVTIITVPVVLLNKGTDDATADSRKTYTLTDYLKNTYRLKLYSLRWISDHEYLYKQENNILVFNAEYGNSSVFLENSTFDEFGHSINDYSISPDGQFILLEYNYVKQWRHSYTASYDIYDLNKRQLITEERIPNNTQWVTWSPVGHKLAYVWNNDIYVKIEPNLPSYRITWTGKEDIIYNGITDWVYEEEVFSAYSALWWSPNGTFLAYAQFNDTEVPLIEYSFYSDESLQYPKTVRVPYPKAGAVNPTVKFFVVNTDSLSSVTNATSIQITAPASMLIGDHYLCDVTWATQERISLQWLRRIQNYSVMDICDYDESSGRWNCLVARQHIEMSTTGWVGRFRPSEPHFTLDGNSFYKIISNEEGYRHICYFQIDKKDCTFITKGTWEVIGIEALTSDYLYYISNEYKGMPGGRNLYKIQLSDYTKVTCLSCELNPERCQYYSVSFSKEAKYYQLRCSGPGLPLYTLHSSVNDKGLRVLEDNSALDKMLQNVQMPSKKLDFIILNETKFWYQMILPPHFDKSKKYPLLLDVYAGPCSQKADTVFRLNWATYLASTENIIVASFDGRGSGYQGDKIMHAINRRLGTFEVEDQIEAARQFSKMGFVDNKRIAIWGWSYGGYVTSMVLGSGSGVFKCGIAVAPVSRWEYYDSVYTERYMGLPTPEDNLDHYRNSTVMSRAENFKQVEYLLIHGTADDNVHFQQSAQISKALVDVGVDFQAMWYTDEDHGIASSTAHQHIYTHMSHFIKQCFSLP

The inhibition is the percentage by which the read-out fell short of the control. With `O=C(O)C1O[C@@H](OC2C(O)[C@H](O)C(C(=O)O)O[C@H]2Oc2cc(O)c3c(=O)cc(-c4ccc(O)c(O)c4)oc3c2)C(O)C(O)[C@@H]1O` (stereo partly drawn) [Compound I, luteolin-7-O-[β-glucuronosyl(1→2)β-glucuronic acid]], in the experiment with C57BL/KsJ mice, the “acute oral glucose tolerance in mice” value is “significantly enhance acute oral glucose tolerance” and the “acute oral glucose tolerance in mice, compared with Sitagliptin (10 mg/kg)” value is “activity comparable to the commercial chemical drug, Sitagliptin”. Further, at hDGAT1, the inhibition at 10 µM is about 20% and the inhibition at 50 µM was over 50%. Also, at DDP4 enzyme, the “inhibition rate against DDP4” value amounted to 40.8% and the inhibition at 100 µM was found to be 40.8 ± 3.26%.

With `O=C(O)C1O[C@@H](OC2C(O)[C@H](O)C(C(=O)O)O[C@H]2Oc2cc(O)c3c(=O)cc(-c4ccc(O)cc4)oc3c2)C(O)C(O)[C@@H]1O` (stereo partly drawn) [Compound II, apigenin-7-O-[β-glucuronosyl(1→2)β-glucuronic acid]], in the experiment on C57BL/KsJ mice, the “acute oral glucose tolerance in mice” value is “significantly enhance acute oral glucose tolerance” and the “acute oral glucose tolerance in mice, compared with Sitagliptin (10 mg/kg)” value was “activity comparable to the commercial chemical drug, Sitagliptin”. Besides, at hDGAT1, the inhibition at 10 µM is about 20% and the inhibition at 50 µM was over 50%. Further, on DDP4 enzyme, the “inhibition rate against DDP4” value was 34.1% and the inhibition at 100 µM was 34.1 ± 3.91%.
